Measurements as given in ChEMBL document CHEMBL3797183, “Rigid amphipathic nucleosides suppress reproduction of the tick-borne encephalitis virus” (Medchemcomm, 2016).

What was measured:
[1] = tested on: Tick-borne encephalitis virus; assay: Antiviral activity against Tick-borne encephalitis virus Absettarov infected in PEK cells assessed as reduction in viral plaque formation incubated for 1 hr measured after 6 days by gentian violet staining; format: functional, cell-based
[2] = Cytotoxicity against PEK cells after 7 days; format: cell-based, Sus scrofa; details: pig
Human alphaherpesvirus 2 = assay: Antiviral activity against HSV2 186 infected in African green monkey Vero cells treated for 10 mins measured after 1 to 2 days by crystal violet staining-based assay; format: functional, cell-based; details: Human alphaherpesvirus 2, strain 186, Vero
[3] = Cytotoxicity against PEK cells after 24 hrs; format: cell-based, Sus scrofa; details: pig
Influenza A virus [4] = assay: Antiviral activity against Influenza virus A/PR/8/34 (H1N1) infected in MDCK cells treated for 10 mins measured after 1 hr by neutral red or crystal violet staining-based assay; format: functional, organism-based; details: A/Puerto Rico/8/1934(H1N1)
Hepatitis C virus = assay: Antiviral activity against HCV JFH-1 infected in human Huh7.5 cells treated for 10 mins measured after 72 hrs by immunocytochemical assay; format: functional, organism-based, Hepacivirus hominis; details: JFH-1, Huh-7
Sindbis virus = assay: Antiviral activity against Sindbis virus infected in African green monkey Vero cells treated for 10 mins measured after 1 to 2 days by crystal violet staining-based assay; format: functional, organism-based
[5] = tested on: Tick-borne encephalitis virus; assay: Antiviral activity against Tick-borne encephalitis virus Absettarov infected in PEK cells assessed as reduction in viral plaque formation compounds preincubated with cells for 1 hr followed by addition of virus with subsequent incubation of 1 hr by gentian violet staining; format: functional, cell-based
[6] = Antiviral activity against Influenza virus A/USSR/90/77 (H1N1) infected in MDCK cells treated for 10 mins measured after 1 hr by neutral red or crystal violet staining-based assay; format: functional, cell-based, Influenza A virus (A/USSR/90/1977(H1N1))
[7] = Antiviral activity against Influenza virus A/Aichi/2/68 (H3N2) infected in MDCK cells treated for 10 mins measured after 1 hr by neutral red or crystal violet staining-based assay; format: functional, cell-based, Influenza A virus (A/Aichi/2/1968(H3N2))
[8] = tested on: Vesicular stomatitis virus; assay: Antiviral activity against VSV infected in African green monkey Vero cells treated for 10 mins measured after 1 to 2 days by crystal violet staining-based assay; format: functional, organism-based
[9] = tested on: Tick-borne encephalitis virus; assay: Antiviral activity against Tick-borne encephalitis virus Absettarov infected in PEK cells assessed as reduction in viral plaque formation compounds preincubated with virus for 1 hr followed by addition of cells with subsequent incubation of 1 hr measured after 6 days by gentian violet staining; format: functional, cell-based
Human alphaherpesvirus 1 = assay: Antiviral activity against HSV1 KOS infected in African green monkey Vero cells treated for 10 mins measured after 1 to 2 days by crystal violet staining-based assay; format: functional, organism-based; details: Human alphaherpesvirus 1, KOS
Influenza A virus [10] = assay: Antiviral activity against Influenza virus A/PC/1/73 (H3N2) infected in MDCK cells treated for 10 mins measured after 1 hr by neutral red or crystal violet staining-based assay; format: functional, organism-based
[11] = tested on: Tick-borne encephalitis virus; assay: Antiviral activity against 2.2x10^4 PFU Tick-borne encephalitis virus Absettarov infected in PEK cells assessed as inhibition of viral titer at 200 EC50 for simultaneous addition of compound/cells/virus incubated for 1 hr measured after 6 days by gentian violet staining; format: functional
[12] = tested on: Tick-borne encephalitis virus; assay: Antiviral activity against 2.2x10^5 PFU Tick-borne encephalitis virus Absettarov infected in PEK cells assessed as inhibition of viral titer at 200 EC50 for simultaneous addition of compound/cells/virus incubated for 1 hr measured after 6 days by gentian violet staining; format: functional
[13] = tested on: Tick-borne encephalitis virus; assay: Antiviral activity against 2.2x10^3 PFU Tick-borne encephalitis virus Absettarov infected in PEK cells assessed as inhibition of viral titer at 200 EC50 for simultaneous addition of compound/cells/virus incubated for 1 hr measured after 6 days by gentian violet staining; format: functional
[14] = Cytotoxicity against PEK cells assessed as cytopathic effect at 50 uM after 7 days relative to control; format: cell-based, Sus scrofa; details: pig, 168 h
[15] = tested on: Tick-borne encephalitis virus; assay: Antiviral activity against 22 PFU Tick-borne encephalitis virus Absettarov infected in PEK cells assessed as inhibition of viral titer at 200 EC50 for simultaneous addition of compound/cells/virus incubated for 1 hr measured after 6 days by gentian violet staining; format: functional
[16] = tested on: Tick-borne encephalitis virus; assay: Antiviral activity against 2 PFU Tick-borne encephalitis virus Absettarov infected in PEK cells assessed as inhibition of viral titer at 200 EC50 for simultaneous addition of compound/cells/virus incubated for 1 hr measured after 6 days by gentian violet staining; format: functional
[17] = tested on: Tick-borne encephalitis virus; assay: Antiviral activity against 2.2x10^2 PFU Tick-borne encephalitis virus Absettarov infected in PEK cells assessed as inhibition of viral titer at 200 EC50 for simultaneous addition of compound/cells/virus incubated for 1 hr measured after 6 days by gentian violet staining; format: functional

Compound: O=c1[nH]c(=O)n([C@@H]2O[C@H](CO)[C@@H](O)[C@@H]2O)cc1C#Cc1ccc2c3cccc4cccc(c5cccc1c52)c43
- EC50 [1]: 18 nM
- CC50 at 168 h [2]: 4400 nM
- IC50 (Human alphaherpesvirus 2): 2 nM
- CC50 at 24 h [3]: > 50000 nM
- IC50 (Influenza A virus [4]): 2 nM
- IC50 (Hepatitis C virus): 2 nM
- IC50 (Sindbis virus): 2 nM
- EC50 [5]: 2700 nM
- IC50 [6]: 2 nM
- IC50 [7]: 2 nM
- IC50 [8]: 2 nM
- EC50 [9]: 40 nM
- IC50 (Human alphaherpesvirus 1): 2 nM
- IC50 (Influenza A virus [10]): 2 nM

Compound: O=c1[nH]c(=O)n([C@H]2C[C@H](O)[C@@H](CO)O2)cc1C#Cc1ccc2ccc3cccc4ccc1c2c34
- EC50 [1]: 980 nM
- CC50 at 168 h [2]: > 50000 nM
- CC50 at 24 h [3]: > 50000 nM
- EC50 [5]: 42000 nM
- EC50 [9]: 600 nM

Compound: O=c1[nH]c(=O)n([C@H]2C[C@H](O)[C@@H](CO)O2)cc1C#CCOCc1ccc2c3cccc4cccc(c5cccc1c52)c43
- inhibition (INH) [11]: 99.9988%
- inhibition (INH) [12]: 99.9965%
- EC50 [1]: 500 nM
- CC50 at 168 h [2]: > 50000 nM
- CC50 at 24 h [3]: > 50000 nM
- inhibition (INH) [13]: 100%
- Activity [14]: 25%
- inhibition (INH) [15]: 100%
- EC50 [5]: > 50000 nM
- inhibition (INH) [16]: 100%
- inhibition (INH) [17]: 100%

Compound: O=c1[nH]c(=O)n([C@H]2C[C@H](O)[C@@H](CO)O2)cc1C#Cc1ccc2c3cccc4cccc(c5cccc1c52)c43
- inhibition (INH) [11]: 99.9988%
- inhibition (INH) [12]: 99.9995%
- EC50 [1]: 24 nM
- CC50 at 168 h [2]: > 50000 nM
- IC50 (Human alphaherpesvirus 2): 2 nM
- CC50 at 24 h [3]: > 50000 nM
- inhibition (INH) [13]: 100%
- Activity [14]: 25%
- inhibition (INH) [15]: 100%
- IC50 (Influenza A virus [4]): 2 nM
- IC50 (Hepatitis C virus): 2 nM
- IC50 (Sindbis virus): 2 nM
- EC50 [5]: 1560 nM
- inhibition (INH) [16]: 100%
- IC50 [6]: 2 nM
- IC50 [7]: 2 nM
- IC50 [8]: 2 nM
- inhibition (INH) [17]: 100%
- EC50 [9]: 40 nM
- IC50 (Human alphaherpesvirus 1): 2 nM
- IC50 (Influenza A virus [10]): 2 nM
